Measurements: patent US4831170A, “Pharmaceutically active phospino-hydrocarbon-group VIII-metal complexes, antitumor compositions containing these complexes, and a process for preparing said compounds or antitumor compositions” (priority 1985, dated 1989)

Key:
[1] = Struck et al., J. Med. Chem., 9, 414 (1966); cited from earlier work
B16 Melanoma = test: Antitumor activity against B16 Melanoma in BDF1 mice; type: in vivo; conditions: for B 16 Dose producing the maximum % T/C: administered ip, days 1-9; for B 16 Maximum % T/C: median survival time vs saline control, ip, daily days 1-9, active if ≥125, figures separated by slashes are from separate experiments
Protocol: Several of the metal complexes were additionally evaluated for antitumor activity against B16 Melanoma. BDF1 mice, 10 per group, were inoculated intraperitoneally with 0.5 ml of a 10 percent (w:v) brei of B16 Melanoma. Intraperitoneal treatment with the metal complexes was initiated one day after implant and continued daily for a total of nine days. From 4 to 5 doses were tested for each compound under study. A saline treated control group and cisplatin treated groups were included in each experiment. The mice were observed daily for survivors and the experiments terminated after 60 days. […] The median survival time of the drug treated mice relative to that of the controls (% T/C) was used as a measure of antitumor activity.
(§1) Occasionally, 5% dextrose in water or 10% DMSO in 0.9% NaCl was used. The compounds were prepared for in vivo treatment by dissolving or suspending, with the addition of minimal amounts of Tween 80, in water.

L1210 murine leukemia = test: Antitumor activity against L1210 murine leukemia in CDF1 mice; type: in vivo; conditions: day 1; for L1210 Dose producing the maximum % T/C: administered ip; for L1210 Max. % T/C: median survival time treated/saline control x 100, ip, active if ≥125
Protocol: (§2) All of the metal complexes were tested for antitumor activity against P388 murine leukemia. Selected compounds were also tested for antitumor activity against L1210 murine leukemia and a subline of L1210 murine leukemia resistant to cisplatin (L1210:DDP). CDF1 mice weighing 20 grams were inoculated intraperitoneally with 10^6 ascites cells of P388 leukemia, L1210 leukemia or L1210:DDP leukemia, depending on the test system being used. Drug administration was initiated the day following tumor implantation in all test systems. The complexes were administered at various dose levels by intraperitoneal injection. Groups of four to six mice were used for each dose level and they were treated with the complex on day one only. A group of ten saline treated control mice was included in each experiment. Cisplatin treated groups were included as a positive control in each experiment. The mice were weighed before treatment and again on day five or six and the average weight change used as a measure of toxicity. The animals were observed daily for mortality and the experiments terminated after 30 days. Antitumor activity was determined based on % T/C, which is the ratio of the median survival time of the drug treated group to the median survival time of the saline treated control group times 100. The saline treated mice usually have a median survival time of 9 days with P388 leukemia and 7 days with L1210 and L1210/DDP leukemia. A complex is considered active if it produces a % T/C of ≥125.
(§3) Tables II and IIa contain summaries of the evaluations of the compounds for antitumor activity against the murine leukemias. Listed for each compound is the maximum % T/C achieved and the dose producing that effect.
as §1, with “For the in vitro cytotoxicity studies the drugs were dissolved or suspended, depending on their solubility, in 0.9% NaCl solution. Occasionally,” for “Occasionally,”

[2] = tested on: B16-F10 murine melanoma cells; test: In vitro cytotoxicity, B16-F10 murine melanoma cells (72 h, crystal violet); type: cell-based
Protocol: (§4) Logarithmically growing cells were harvested by mild trypsinization and 4000 cells were added to each well of a 96-well microtiter plate (Costar). […] The cells were then treated with a metal complex or cisplatin and incubated for 72 hours. The plates were inverted and shaken to remove media, drug and detached cells. […] The fixative was removed, the plates air dried, stained with 0.0075% crystal violet for 15 minutes, washed twice and air dried. The stain was solubilized with 0.2 ml of 0.1 M AcOH/EtOH (1:1) and optical densities determined using a Dynatech MR600 microtiter plate reader. […] The compounds were prepared for in vivo treatment by dissolving or suspending, with the addition of minimal amounts of Tween 80, in water.

[3] = tested on: HCT-116 human colon carcinoma cells; test: In vitro cytotoxicity, HCT-116 human colon carcinoma cells (72 h, crystal violet); type: cell-based; conditions: HCT-116 cells
Protocol: as §4

[4] = tested on: L1210 murine leukemia resistant to cisplatin (L1210:DDP); test: Antitumor activity against cisplatin-resistant L1210 murine leukemia (L1210/DDP) in CDF1 mice; type: in vivo; conditions: cisplatin-resistant subline, day 1; for L1210/DDP Dose producing the maximum % T/C: administered ip; for L1210/DDP Max. % T/C: done concomitantly with L1210 test, ip, active if ≥125
Protocol: as §2, §3
as §1, with “For the in vitro cytotoxicity studies the drugs were dissolved or suspended, depending on their solubility, in 0.9% NaCl solution. Occasionally,” for “Occasionally,”

P388 murine leukemia = test: Antitumor activity against P388 murine leukemia in CDF1 mice; type: in vivo; conditions: 1 x on day 1; for P 388 Dose producing the maximum % T/C: administered ip; for P 388 Maximum % T/C: median survival time treated/saline control x 100, ip, active if ≥125
Protocol: as §2, §3
as §1, with “For the in vitro cytotoxicity studies the drugs were dissolved or suspended, depending on their solubility, in 0.9% NaCl solution. Occasionally,” for “Occasionally,”

| SMILES | cytotoxic activity [1] | B 16 Dose producing the maximum % T/C (B16 Melanoma) | B 16 Maximum % T/C (B16 Melanoma) | L1210 Dose producing the maximum % T/C (L1210 murine leukemia) | L1210 Max. % T/C (L1210 murine leukemia) | IC 50 (concentration which inhibits cell growth by 50%), B 16 [2] | IC 50 (concentration which inhibits cell growth by 50%), HCT 116 [3] | L1210/DDP Dose producing the maximum % T/C [4] | L1210/DDP Max. % T/C [4] | P 388 Dose producing the maximum % T/C (P388 murine leukemia) | P 388 Maximum % T/C (P388 murine leukemia) |
| --- | --- | --- | --- | --- | --- | --- | --- | --- | --- | --- | --- |
| c1ccc(P(CCP(c2ccccc2)c2ccccc2)c2ccccc2)cc1 [1,2-bis-(diphenylphosphino)ethane, 1,2-bis(diphenylphosphino)ethane] | cytotoxic activity |  |  |  |  |  |  |  |  |  |  |
| O=[N+]([O-])[O-].O=[N+]([O-])[O-].[Ni+2].c1ccc(P(CCP(c2ccccc2)c2ccccc2)c2ccccc2)cc1.c1ccc(P(CCP(c2ccccc2)c2ccccc2)c2ccccc2)cc1 [TNO 354, Bis[1,2-bis(diphenylphosphino)ethane]nickel(II) dinitrate] |  | 30 mg/kg/inj. | 183 % T/C | 80 mg/kg | 100 % T/C | 4.1 µg/mL | 1.3 µg/mL | 80 mg/kg | 138 % T/C | 50 mg/kg | 139 % T/C |
| O=[N+]([O-])[O-].O=[N+]([O-])[O-].[Co+2].c1ccc(P(CCP(c2ccccc2)c2ccccc2)c2ccccc2)cc1.c1ccc(P(CCP(c2ccccc2)c2ccccc2)c2ccccc2)cc1 [TNO 347, Bis[1,2-bis(diphenylphosphino)ethane]nitrato cobalt(II) nitrate] |  | 20 mg/kg/inj. | 171 % T/C | 100 mg/kg | 100 % T/C | 413 µg/mL | > 500 µg/mL | 50 mg/kg | 150 % T/C | 100 mg/kg | 161 % T/C |
